Measurements reported in patent US7662810B2, “2-arylmethylazetidine carbapenem derivatives and preparation thereof” (Korea Research Institute of Chemical Technology, priority 2004, dated 2010).

Legend:
[1] = tested on: Enterobacter cloacae 1321 E; test: Measurement of Minimum Inhibitory Concentration (MIC); format: cell-based
Description: (§1) The antibacterial activities of the compounds of the present invention prepared in the above Examples against Gram-positive and Gram-negative bacteria, MRSA and QRS were tested as follows.
(§2) Respective bacterial strains were inoculated into 3 ml of Fleisch extract broth (beef extract 1%, peptone 1%, NaCl 0.3%, Na2HPO4.12H2O 0.2%, pH 7.4-7.5. 10% horse serum was supplemented for Streptococcus pyogenes and S. facium) and cultured on a shaking incubator at 37° C. for 18 hours. About 10^4 CFU/spot of the cultured bacterial strains were inoculated onto Müller-Hinton agar plates containing serial double dilutions (final concentration of 0.002 to 100 μg/ml) of a test compound employing an automatic inoculator (Dynatech, USA), and incubated at 37° C. for 18 hours. When the incubation was completed, the minimum inhibitory concentration was determined. Meropenem (Yuhan corporation, Korea) and vancomycin (Cj Inco., Korea) were used as standard antibiotics, respectively.

[2] = tested on: Enterobacter cloacae P 99; test: as above; format: cell-based
Description: as §1, §2

Escherichia coli 078 = test: as above; format: cell-based
Description: as §1, §2

Escherichia coli 1507 E = test: as above; format: cell-based
Description: as §1, §2

Escherichia coli DC 0 = test: as above; format: cell-based
Description: as §1, §2

Escherichia coli DC 2 = test: as above; format: cell-based
Description: as §1, §2

Escherichia coli TEM = test: as above; format: cell-based; conditions: Escherichia coli TEM
Description: as §1, §2

[3] = tested on: Klebsiella aerogenes 1522 E; test: as above; format: cell-based
Description: as §1, §2

[4] = tested on: Klebsiella oxytoca 1082 E; test: as above; format: cell-based
Description: as §1, §2

[5] = tested on: Salmonella typhimurium 179; test: as above; format: cell-based; conditions: Salmonella typhimurium 179
Description: as §1, §2

[6] = tested on: Staphylococcus aureus 285; test: as above; format: cell-based
Description: as §1, §2

[7] = tested on: Staphylococcus aureus 503; test: as above; format: cell-based
Description: as §1, §2

[8] = tested on: Staphylococcus faecium MD 8b; test: as above; format: cell-based; conditions: Staphylococcus faecium MD 8b
Description: as §1, §2

[9] = tested on: Staphylococcus pyogenes 308A; test: as above; format: cell-based; conditions: Staphylococcus pyogenes 308A
Description: as §1, §2

[10] = tested on: Staphylococcus pyogenes 77A; test: as above; format: cell-based; conditions: Staphylococcus pyogenes 77A
Description: as §1, §2

[11] = tested on: Staphylococcus aureus 121E; test: Measurement of Minimum Inhibitory Concentration (MIC), MRSA; format: cell-based; conditions: Staphylococcus aureus 121E
Description: as §1, §2

[12] = tested on: Staphylococcus aureus 208E; test: as above; format: cell-based; conditions: Staphylococcus aureus 208E
Description: as §1, §2

[13] = tested on: Staphylococcus aureus 256E; test: as above; format: cell-based; conditions: Staphylococcus aureus 256E
Description: as §1, §2

[14] = tested on: Staphylococcus aureus 690E; test: as above; format: cell-based; conditions: Staphylococcus aureus 690E
Description: as §1, §2

[15] = tested on: Staphylococcus aureus 692E; test: as above; format: cell-based; conditions: Staphylococcus aureus 692E
Description: as §1, §2

[16] = tested on: Staphylococcus aureus 693E; test: as above; format: cell-based; conditions: Staphylococcus aureus 693E
Description: as §1, §2

[17] = tested on: Staphylococcus aureus 694E; test: as above; format: cell-based; conditions: Staphylococcus aureus 694E
Description: as §1, §2

[18] = tested on: Staphylococcus aureus 695E; test: as above; format: cell-based; conditions: Staphylococcus aureus 695E
Description: as §1, §2

[19] = tested on: Staphylococcus aureus 697E; test: as above; format: cell-based; conditions: Staphylococcus aureus 697E
Description: as §1, §2

[20] = tested on: Staphylococcus aureus 88E; test: as above; format: cell-based; conditions: Staphylococcus aureus 88E
Description: as §1, §2

[21] = tested on: Staphylococcus aureus 179; test: Measurement of Minimum Inhibitory Concentration (MIC), QRS; format: cell-based; conditions: QRS, Staphylococcus aureus 179
Description: as §1, §2

[22] = tested on: Staphylococcus aureus 241; test: as above; format: cell-based; conditions: QRS, Staphylococcus aureus 241
Description: as §1, §2

[23] = tested on: Staphylococcus aureus 293; test: as above; format: cell-based; conditions: QRS, Staphylococcus aureus 293
Description: as §1, §2

[24] = tested on: Staphylococcus epidermidis 178; test: as above; format: cell-based; conditions: QRS, Staphylococcus epidermidis 178
Description: as §1, §2

[25] = tested on: Staphylococcus epidermidis 291; test: as above; format: cell-based; conditions: QRS, Staphylococcus epidermidis 291
Description: as §1, §2

[26] = target: T1, Dihydropeptidase-1 (DHP-1) (Sus scrofa, UniProt P22412)
T1 sequence (P22412 17-384): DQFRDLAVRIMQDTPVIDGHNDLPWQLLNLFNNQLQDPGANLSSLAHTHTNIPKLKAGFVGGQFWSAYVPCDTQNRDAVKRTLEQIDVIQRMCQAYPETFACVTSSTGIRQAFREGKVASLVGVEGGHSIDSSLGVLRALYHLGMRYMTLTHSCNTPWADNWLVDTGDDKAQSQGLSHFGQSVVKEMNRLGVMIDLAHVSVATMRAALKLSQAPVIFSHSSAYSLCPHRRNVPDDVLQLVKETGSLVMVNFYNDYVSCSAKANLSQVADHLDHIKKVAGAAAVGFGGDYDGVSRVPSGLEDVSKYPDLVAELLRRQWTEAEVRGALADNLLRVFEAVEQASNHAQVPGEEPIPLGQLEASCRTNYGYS

| Compound | MIC [1] | MIC [2] | MIC (Escherichia coli 078) | MIC (Escherichia coli 1507 E) | MIC (Escherichia coli DC 0) | MIC (Escherichia coli DC 2) | MIC (Escherichia coli TEM) | MIC [3] | MIC [4] | MIC [5] | MIC [6] | MIC [7] | MIC [8] | MIC [9] | MIC [10] | MIC [11] | MIC [12] | MIC [13] | MIC [14] | T1/2 (time when the concentration of the medicament become the half) [26] | further results |
| --- | --- | --- | --- | --- | --- | --- | --- | --- | --- | --- | --- | --- | --- | --- | --- | --- | --- | --- | --- | --- | --- |
| C[C@@H](O)[C@H]1C(=O)N2C(C(=O)[O-])=C(SC3CN([C@@H](C)c4ccccc4)C3)[C@H](C)[C@H]12.[K+] [Exam. 22, Potassium(1R,5S,6S)-2-{1-[(1S)-1-phenylethyl]-azetidine-3-yl-thio}-6-[(R)-1-hydroxylethyl]-1-methylcarbapen-2-em-3-carboxylate] | 0.098 µg/mL | 0.391 µg/mL | 0.098 µg/mL | 0.195 µg/mL | 0.391 µg/mL | 0.025 µg/mL | 0.391 µg/mL | 0.391 µg/mL | 0.098 µg/mL | 0.049 µg/mL | 0.025 µg/mL | 0.013 µg/mL | 1.563 µg/mL | 0.002 µg/mL | 0.002 µg/mL | 0.049 µg/mL | 0.025 µg/mL | 0.025 µg/mL | 0.195 µg/mL | 65.99 | MIC [15]: 0.025 µg/mL; MIC [16]: 3.125 µg/mL; MIC [17]: 0.049 µg/mL; MIC [18]: 0.098 µg/mL; MIC [19]: 0.025 µg/mL; MIC [20]: 0.025 µg/mL; MIC [21]: 0.049 µg/mL; MIC [22]: 0.049 µg/mL; MIC [23]: 0.195 µg/mL; MIC [24]: 0.195 µg/mL; MIC [25]: 0.391 µg/mL; stability against hydrolysis by DHP-1 (in words) [26]: very stable |
| C[C@@H](O)[C@H]1C(=O)N2C(C(=O)[O-])=C(SC3CN(Cc4cccc(C(F)(F)F)c4)C3)[C@H](C)[C@H]12.[K+] [Exam. 20, Potassium(1R,5S,6S)-2-[1-(3-trifluoromethylbenzyl)-azetidine-3-yl-thio]-6-[(1R)-1-hydroxylethyl]-1-methylcarbapen-2-em-3-carboxylate] |  |  |  |  |  |  |  |  |  |  |  |  |  |  |  |  |  |  |  | 16.03 | Relative T1/2 [26]: 0.88 |
| COc1ccc(CN2CC(SC3=C(C(=O)[O-])N4C(=O)[C@H]([C@@H](C)O)[C@H]4[C@H]3C)C2)cc1OC.[K+] [Exam. 17, Potassium(1R,5S,6S)-2-[1-(3,4-dimethoxybenzyl)-azetidine-3-yl-thio]-6-[(1R)-1-hydroxylethyl]-1-methylcarbapen-2-em-3-carboxylate] | 0.391 µg/mL | 0.781 µg/mL | 0.098 µg/mL | 0.391 µg/mL | 0.781 µg/mL | 0.049 µg/mL | 0.391 µg/mL | 0.391 µg/mL | 0.098 µg/mL | 0.098 µg/mL | 0.025 µg/mL | 0.013 µg/mL | 1.563 µg/mL | 0.002 µg/mL | 0.002 µg/mL | 0.098 µg/mL | 0.049 µg/mL | 0.049 µg/mL | 0.781 µg/mL | 27.45 | MIC [15]: 0.195 µg/mL; MIC [16]: 0.391 µg/mL; MIC [17]: 0.098 µg/mL; MIC [18]: 0.098 µg/mL; MIC [19]: 0.098 µg/mL; MIC [20]: 0.195 µg/mL; MIC [21]: 0.098 µg/mL; MIC [22]: 0.195 µg/mL; MIC [23]: 0.391 µg/mL; MIC [24]: 0.781 µg/mL; MIC [25]: 1.563 µg/mL |
| C[C@@H](O)[C@H]1C(=O)N2C(C(=O)[O-])=C(SC3CN(Cc4ccc(Cl)cc4)C3)[C@H](C)[C@H]12.[K+] [Exam. 18, Potassium(1R,5S,6S)-2-[1-(4-chlorobenzyl)-azetidine-3-yl-thio]-6-[(1R)-1-hydroxylethyl]-1-methylcarbapen-2-em-3-carboxylate] |  |  |  |  |  |  |  |  |  |  |  |  |  |  |  |  |  |  |  | 15.36 | Relative T1/2 [26]: 0.84 |
